What follows are compounds tested against T1, FLuc-C-HiBiT (Photinus pyralis, UniProt P08659) (assay: biochemical). Conditions: enzyme activity, 10 uM ATP; read-out: IC50 or SDR50 (mM) / FLuc E.
T1 construct: firefly luciferase with C-terminal HiBiT tag, E. coli expressed
T1 sequence (P08659 whole entry, looked up): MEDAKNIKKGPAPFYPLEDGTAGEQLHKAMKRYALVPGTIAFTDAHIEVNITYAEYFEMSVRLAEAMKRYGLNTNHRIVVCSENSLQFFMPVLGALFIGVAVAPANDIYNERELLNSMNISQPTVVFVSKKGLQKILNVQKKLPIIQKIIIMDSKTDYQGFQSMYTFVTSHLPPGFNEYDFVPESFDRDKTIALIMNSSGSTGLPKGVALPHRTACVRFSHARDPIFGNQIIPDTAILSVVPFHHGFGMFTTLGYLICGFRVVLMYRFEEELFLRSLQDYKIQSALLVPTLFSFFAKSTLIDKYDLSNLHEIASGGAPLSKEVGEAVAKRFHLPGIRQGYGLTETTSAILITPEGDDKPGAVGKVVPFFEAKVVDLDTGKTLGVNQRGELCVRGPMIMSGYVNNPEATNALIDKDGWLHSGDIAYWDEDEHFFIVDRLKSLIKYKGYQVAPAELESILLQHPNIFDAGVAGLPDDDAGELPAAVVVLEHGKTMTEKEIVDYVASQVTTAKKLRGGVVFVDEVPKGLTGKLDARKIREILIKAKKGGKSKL

| SMILES | IC50 [mM] |
| --- | --- |
| O=C(Nc1cnc(-c2ccccc2)nc1)C1CCCC1 [NCGC00432867-01] | 0.00248 |
| Cc1ccc(-c2ncc(NC(=O)c3ccccc3F)cn2)cc1 [NCGC00432887-01] | 0.00197 |
| CCC(=O)Nc1cnc(-c2ccc(C)cc2)nc1 [NCGC00432895-01] | 0.00881 |
| CCCC(=O)Nc1cnc(-c2ccc(C)cc2)nc1 [NCGC00432897-01] | 0.00351 |
| O=C(Nc1cnc(-c2ccc(Cl)cc2)nc1)C1CCC1 [NCGC00432903-01] | 0.00124 |
| Oc1cc(-c2nc3ccccc3s2)cc2c1OCCN(Cc1ncccn1)C2 [NCGC00432964-01] | > 0.03 |
| COc1cc(C)ccc1OCc1cc(C(=O)NCc2n[nH]c3c2CCC3)no1 [NCGC00433000-01] | 0.0124 |
| CCN(CC1CCOCC1)C(=O)c1cccnc1SC/C=C/c1ccccc1 [NCGC00433298-01] | 0.0124 |
| CCn1ncc(NC(=O)Cn2ncc3cc(-c4ccc(N(C)C)cc4)ccc32)n1 [NCGC00433406-01] | 0.000785 |
| Cc1cncc(C(=O)N2CCOc3c(O)cc(-c4nc5ccccc5s4)cc3C2)c1 [NCGC00433624-01] | > 0.03 |
| COC(=O)[C@@H]1C[C@H](NC(=O)c2ccc(Oc3ccccc3)cc2)CN1C [NCGC00433761-01] | 0.0157 |
| O=C1C[C@H]2CC[C@@H](CN1)N2Cc1ccc(OCc2ccccc2)cc1 [NCGC00434033-01] | 0.014 |
| Cc1cc(CNC(=O)C2CCCCn3nnnc32)c2[nH]c(-c3ccccc3)c(C)c2c1 (stereo not drawn) [NCGC00434459-01] | 0.0111 |
| CC(C)Cc1noc(-c2ccc(N3CCC(O)CC3)nc2)n1 [NCGC00434953-01] | 0.00556 |
| COc1ccc2c(c1)C1(CCN(C(=O)Nc3ccc4c(c3)OCCO4)C1)C(=O)N2C (stereo not drawn) [NCGC00435246-01] | 0.0111 |
| CN1CCN(C[C@@H]2CN(C(=O)CCCc3ccccc3)C[C@@H]2CO)CC1 [NCGC00435815-01] | > 0.03 |
| CC(C)(O)CCc1ccc(C(=O)NCCSc2ccccn2)cc1 [NCGC00435911-01] | 0.0176 |
| Cc1ncc(C(=O)NCc2ccc3[nH]c(-c4ccccc4F)c(C)c3c2)c(C)n1 [NCGC00435925-01] | 0.00785 |
| CCCc1ccc2oc(C(=O)NCCc3nncn3CC)c(C)c2c1 [NCGC00436423-01] | 0.0124 |
| Cc1ccc2cc(CN3CCN(CC(N)=O)CC3)c(-c3cccs3)nc2c1 [NCGC00436639-01] | 0.0124 |
| c1ccc(CNc2cc(-c3cc(N4CCCCC4)ncn3)c3cc[nH]c3n2)nc1 [NCGC00436665-01] | 0.00989 |

| SMILES | IC50 [mM] |
| --- | --- |
| Cc1ncc(CC(=O)NCc2ccc3[nH]c(-c4ccccc4F)c(C)c3c2)c(=O)[nH]1 [NCGC00436691-01] | 0.0124 |
| COc1ccccc1OC1(C(=O)O)CCN(c2ncnc3[nH]cnc23)CC1 [NCGC00436727-01] | > 0.03 |
| CN(C)c1cccc(C(=O)NC2CCN(c3cc(-c4ccc(Cl)cc4)n[nH]3)CC2)c1 [NCGC00437038-01] | 0.00624 |
| Cc1c(-c2ccccc2F)[nH]c2ccc(CNC(=O)CCc3cc(O)no3)cc12 [NCGC00437347-01] | 0.00989 |
| COc1ccc(C(=O)NC2CCCN(c3cc(-c4ccc(Cl)cc4)n[nH]3)C2)cc1OC (stereo not drawn) [NCGC00437414-01] | 0.00624 |
| O=C(NC1CCCN(c2cc(-c3ccc(Cl)cc3)n[nH]2)C1)c1ccc2ncccc2c1 (stereo not drawn) [NCGC00437446-01] | 0.00495 |
| COc1cc(C(=O)NC2CCCN(c3cc(-c4ccc(F)cc4)n[nH]3)C2)cc(OC)c1OC (stereo not drawn) [NCGC00437480-01] | 0.0111 |
| COc1cccc(-c2cc(C(=O)NCc3nc(-c4ccccc4)n[nH]3)[nH]n2)c1 [NCGC00437481-01] | 0.0111 |
| OC1(CN2CCCCC2)CCN(c2nc3ccccc3s2)C1 (stereo not drawn) [NCGC00437487-01] | 0.0157 |
| COc1ccc(C(=O)NC2CCCN(c3cc(-c4ccc(F)cc4)n[nH]3)C2)cc1OC (stereo not drawn) [NCGC00437488-01] | 0.0111 |
| O=C(NC1CCCN(c2cc(-c3ccc(F)cc3)n[nH]2)C1)c1ccc2ncccc2c1 (stereo not drawn) [NCGC00437580-01] | 0.00881 |
| COc1ccc(-c2cc(N3CCCC(NC(=O)c4cccs4)C3)[nH]n2)cc1 (stereo not drawn) [NCGC00437586-01] | 0.00989 |
| COc1ccc(-c2cc(N3CCCC(NC(=O)c4ccc5c(c4)OCO5)C3)[nH]n2)cc1 (stereo not drawn) [NCGC00437602-01] | 0.0111 |
| CN(C)C1CCN(c2ccc(-c3nc(CCCc4ccccc4)no3)cn2)CC1 [NCGC00437613-01] | > 0.03 |
| COc1ccc(-c2cc(N3CCCC(NC(=O)c4cc(OC)c(OC)c(OC)c4)C3)[nH]n2)cc1 (stereo not drawn) [NCGC00437614-01] | 0.00556 |
| COc1ccc(-c2cc(N3CCCC(NC(=O)c4cc(OC)cc(OC)c4)C3)[nH]n2)cc1 (stereo not drawn) [NCGC00437618-01] | 0.00989 |
| COc1ccc(-c2cc(N3CCCC(NC(=O)c4ccc(OC)cc4OC)C3)[nH]n2)cc1 (stereo not drawn) [NCGC00437622-01] | 0.0111 |
| COc1ccc(-c2cc(N3CCCC(NC(=O)c4ccc(OC)c(OC)c4)C3)[nH]n2)cc1 (stereo not drawn) [NCGC00437624-01] | 0.00394 |
| COc1ccc(-c2cc(N3CCCC(NC(=O)c4ccncc4)C3)[nH]n2)cc1 (stereo not drawn) [NCGC00437632-01] | 0.0111 |
| COc1ccc(-c2cc(N3CCCC(NC(=O)c4cccc(OC)c4)C3)[nH]n2)cc1 (stereo not drawn) [NCGC00437636-01] | 0.00785 |
| COc1ccc(-c2cc(N3CCCC(NC(=O)c4cccc5[nH]ccc45)C3)[nH]n2)cc1 (stereo not drawn) [NCGC00437654-01] | 0.014 |

| SMILES | IC50 [mM] |
| --- | --- |
| COc1ccc(-c2cc(N3CCCC(NC(=O)c4ccsc4)C3)[nH]n2)cc1 (stereo not drawn) [NCGC00437662-01] | 0.00624 |
| COc1ccc(-c2cc(N3CCCC(NC(=O)c4c[nH]c5ccccc45)C3)[nH]n2)cc1 (stereo not drawn) [NCGC00437686-01] | 0.0111 |
| COc1ccc(-c2cc(N3CCCC(NC(=O)c4ccc5ncccc5c4)C3)[nH]n2)cc1 (stereo not drawn) [NCGC00437712-01] | 0.00394 |
| COc1ccc(-c2cc(N3CCCC(NC(=O)c4ccc5[nH]ccc5c4)C3)[nH]n2)cc1 (stereo not drawn) [NCGC00437714-01] | 0.00495 |
| Cc1ccc2nc(C(=O)N3CCCC3c3cc(C(C)C)on3)cn2c1 (stereo not drawn) [NCGC00437737-01] | 0.0157 |
| Cc1ccc(-c2cc(N3CCC(CNC(=O)c4ccc5[nH]cnc5c4)CC3)[nH]n2)cc1 [NCGC00437766-01] | 0.00881 |
| CC(=O)NC1CCN(Cc2cn(-c3ccc(C)cc3)nc2-c2cccc(C)c2)C1 (stereo not drawn) [NCGC00437791-01] | 0.014 |
| CN(C)c1cccc(C(=O)NC2CCN(c3cc(-c4ccccc4)n[nH]3)C2)c1 (stereo not drawn) [NCGC00437846-01] | 0.007 |
| CN(C)c1cccc(C(=O)NC2CCN(c3cc(-c4ccc(Cl)cc4)n[nH]3)C2)c1 (stereo not drawn) [NCGC00437918-01] | 0.0111 |
| O=C(NC1CCN(c2cc(-c3ccc(F)cc3)n[nH]2)C1)c1cc2ccccc2[nH]1 (stereo not drawn) [NCGC00437958-01] | 0.00624 |
| Cc1cc(F)ccc1OC1(C(=O)O)CCN(c2ncnc3[nH]cnc23)CC1 [NCGC00438333-01] | > 0.03 |
| O=C(O)c1ccnc(-c2ccnc(NCCN3CCCCC3=O)n2)c1 [NCGC00438481-01] | 0.0111 |
| CN(CCO)c1ccc(-c2nc(CCCc3ccccc3)no2)cn1 [NCGC00438483-01] | 0.0124 |
| Cc1c(-c2ccccc2F)[nH]c2ccc(CNC(=O)C3C=CCN3)cc12 (stereo not drawn) [NCGC00438963-01] | 0.0124 |
| CCn1c(C2CCCN(C(=O)Nc3ccc4c(c3)OCCO4)C2)nn(C)c1=O (stereo not drawn) [NCGC00439046-01] | 0.0111 |
| CSCC(=O)Nc1nn(-c2ccc(F)cc2)c2cccc(N3CCOCC3)c12 [NCGC00439780-01] | 0.00989 |
| O=C(Nc1ccc2c(c1)OCCO2)C1CN([S+](=O)([O-])C2CC2)CC12CCCCC2 (stereo not drawn) [NCGC00439803-01] | 0.00442 |
| Cc1c(-c2ccccc2)[nH]c2c(CNC(=O)C3=NN(C)C(=O)CC3)cc(Cl)cc12 [NCGC00439904-01] | 0.0124 |
| C[C@@H]1CN(c2nc(-c3ccccc3)no2)CC[C@@]1(O)C1CCC1 [NCGC00439928-01] | 0.00176 |
| COc1ccc(-c2cc3nc4c(c(=O)n3[nH]2)CN(C(=O)NCc2ccco2)CC4)cc1 [NCGC00440289-01] | 0.0111 |
| OCC1(CC2CC2)CCCN(c2nc(-c3ccccc3)no2)C1 (stereo not drawn) [NCGC00440394-01] | > 0.03 |

| SMILES | IC50 [mM] |
| --- | --- |
| COCCNc1cc(-c2ccc3ccccc3n2)c2cc[nH]c2n1 [NCGC00440476-01] | 0.0124 |
| O=C(Nc1nn(-c2cccc(F)c2)c2cccc(N3CCOCC3)c12)C1CCC1 [NCGC00440498-01] | 0.0111 |
| c1ccc(CCCc2noc(-c3ccc(NCc4ccccn4)nc3)n2)cc1 [NCGC00440648-01] | > 0.03 |
| CCc1nc(-c2ccc(OC3CCN(C(=O)C4CC4)C3)cc2)no1 (stereo not drawn) [NCGC00440987-01] | 0.0124 |
| O=C(c1ccncc1)N1CCC(Oc2ccc(-c3noc(-c4ccccc4)n3)cc2)C1 (stereo not drawn) [NCGC00440993-01] | 0.0124 |
| Cc1nc(C)c(C(=O)N2CCC(Oc3ccc(-c4noc(-c5ccccc5)n4)cc3)C2)s1 (stereo not drawn) [NCGC00440995-01] | 0.0111 |
| Cc1ncccc1C(=O)N1CCC(Oc2ccc(-c3noc(-c4ccccc4)n3)cc2)C1 (stereo not drawn) [NCGC00440997-01] | 0.0111 |
| O=C(c1ccccn1)N1CCC(Oc2ccc(-c3noc(-c4ccccc4)n3)cc2)C1 (stereo not drawn) [NCGC00441001-01] | 0.0111 |
| O=C(NCc1ccc(F)cc1)N1CC(Oc2ccc(-c3nc(-c4ccccc4)no3)cc2)C1 [NCGC00441109-01] | > 0.03 |
| O=C(Nc1ccccc1)N1CC(Oc2ccc(-c3nc(-c4ccccc4)no3)cc2)C1 [NCGC00441117-01] | 0.0111 |
| CCNC(=O)N1CC(Oc2ccc(-c3nc(-c4ccccc4)no3)cc2)C1 [NCGC00441125-01] | 0.00556 |
| Cc1cc(CNC(=O)CC2C=C[S+](=O)([O-])C2)c2[nH]c(-c3ccccc3)c(C)c2c1 (stereo not drawn) [NCGC00441154-01] | 0.0111 |
| O=C(Cc1cccc(F)c1)N1CC(Oc2ccc(-c3nc(-c4ccccc4)no3)cc2)C1 [NCGC00441157-01] | 0.0124 |
| c1ccc(-c2noc(-c3ccc(OC4CNC4)cc3)n2)cc1 [NCGC00441173-01] | 0.00279 |
| Cc1ncccc1C(=O)N1CC(Oc2ccc(-c3nc(-c4ccccc4)no3)cc2)C1 [NCGC00441179-01] | 0.00624 |
| OC1CCCN(c2ccc(-c3nc(-c4cccc(C(F)(F)F)c4)no3)cn2)C1 (stereo not drawn) [NCGC00441254-01] | 0.00556 |
| O=C(O)C1(Oc2ccc3ccccc3c2)CCN(c2ncnc3[nH]cnc23)CC1 [NCGC00441641-01] | > 0.03 |
| C[C@@H]1CN(c2cnc3ccccc3n2)CC[C@@]1(O)C1CCC1 [NCGC00441645-01] | 0.0111 |

Reference: article PMC12064818, “A general assay platform to study protein pharmacology using ligand-dependent structural dynamics” (Nature Communications, 2025)
